Experiments:
Type in all cases: cell-based, Escherichia coli
[1] = system: E. coli (strain NCTC 10418); assay: Antimicrobial susceptibility testing by flow cytometry-based assay (LIVE/DEAD BacLight, Syto9/PI); conditions: 50 μg/ml, 30 minutes
Description: E. coli (strain NCTC 10418), P. aeruginosa (Strain PAO1) and S. aureus (Wood 46, NCTC 7121) cells were grown in 5 mL of Todd Hewitt Broth medium (THB; Sigma-Aldrich). Bacteria were cultivated at 37° C. for 15 h in a 15 mL tube to obtain late-log phase cultures. Bacterial cultures were pelleted at 3096 g for 10 minutes; the supernatant was discarded and bacteria were resuspended in phosphate-buffered saline (PBS) supplemented with 40 mg/ml human albumin to mimic chemical properties of blood. Bacteria were diluted to a standardized inoculum of 10^9 CFU/mL.
Bacteria were treated with GA, LL-37, Piperacillin/Tazobactam or Vancomycin in varying concentrations, i.e. 50, 25, 10 or 2 μg/ml, for 30 minutes. As a positive control, bacteria were treated with 7% isopropanol. Hereafter, bacteria were pelleted at 3096 g for 10 minutes; the supernatant was discarded and bacteria were resuspended in PBS. The antimicrobial effect was tested in a well-established and widely used flow cytometry-based assay (LIVE/DEAD® BacLight™ Bacterial Viability and Counting Kit (L34856), Molecular Probes/Invitrogen) according to manufacturer's manual.
For each bacteria, the flow cytometry-based assay was repeated four times.
Flow cytometry was used to determine the antimicrobial activity of GA and LL-37. The flow cytometry diagrams show the results after treatment with 50 μg/ml LL-37, GA, piperacillin/tazobactam, 7% isopropanol and the untreated control. […] This gating strategy was primarily applied to avoid counting beads in the upper right corner of the FS-SS. […] Thus, a two-color fluorescence assay of bacterial viability, including PI and Syto9 staining, was applied. Syto9 stains all bacteria in a population, i.e. those with intact and those with damaged membranes. In contrast, propidium iodide (PI) penetrates only bacteria with damaged membranes, thereby making quantification of bacterial viability possible.

E. coli (NCTC 10418) = assay: Antimicrobial susceptibility testing (MIC) by the oCelloScope system; conditions: CAMHBT broth, SESA growth curves
Description: E. coli (strain NCTC 10418) and S. aureus (Wood 46, NCTC 7121) were grown overnight in Sensititre® cation-adjusted Mueller-Hinton broth with TES (CAMHBT, TREK Diagnostic System). Bacterial cell suspensions were adjusted to 0.5 McFarland standard using a nephelometer. Subsequently, bacteria were diluted in CAMHBT according to the recommended final inoculum size for broth dilution (5×10^5 colony-forming units (CFU) ml^−1) (Wiegand, I., K. Hilpert, and R. E. Hancock, Agar and broth dilution methods to determine the minimal inhibitory concentration (MIC) of antimicrobial substances. Nat Protoc, 2008. 3(2): p. 163-75) and analyzed in Nunc Edge 96-well plates by the oCelloScope system.
The oCelloScope is a digital time-lapse microscopy technology that scans through a fluid sample generating series of images as described in 2013 by Fredborg et al. (Fredborg, M., et al., Real-time optical antimicrobial susceptibility testing. J Clin Microbiol, 2013. 51(7): p. 2047-53). As a result of the tilted imaging plane, the images recorded by the oCelloScope system constitute a parallelepipedum that forms the image stack. […] Growth kinetics was determined by image stack processing based on contrast based Segmentation and Extraction of Surface Area (SESA). […]
The effect of GA on bacterial growth was further evaluated using, an optical screening system (oCelloScope) (FIG. 6). […]

[2] = system: E. coli (strain NCTC 10418); assay: Colony-forming unit (CFU) counting; conditions: 30 minutes at 37° C. in PBS, even at 2 μg/ml
Description: Late-log phase E. coli (strain NCTC 10418), P. aeruginosa (strain PAO1, ATCC 15692) and S. aureus (Wood 46, NCTC 7121) were resuspended in PBS and treated with different concentrations of glatiramer acetate (GA) or LL-37 (Innovagen, Lund, Sweden) and incubated on a shaker for 30 minutes at 37° C. Subsequently, a dilution series was performed to achieve a suitable amount of bacteria on the 5% blood agar plates. The 5% blood agar streak plates were cultured at 37° C. for 16 h and the resulting CFUs on the blood agar plates were imaged with a digital camera and counted with the aid of the software ImageJ 1.48v.

Glatiramer acetate [GA]
percentage of bacteria testing positive for PI [1]: 17.7% | percentage of bacteria testing positive for Syto-9 [1]: 78.3% | MIC (E. coli (NCTC 10418)): 31 µg/mL | antibacterial effect by CFU counting (in words) [2]: enhanced ability to kill E. coli
